Source: patent publication EP0172581B1, “Disaccharide derivatives” (DAIICHI SEIYAKU CO., LTD., priority 1984, dated 1986)
Read-outs that look alike come from different tables or passages of the source.

What was measured:
[1] = test system: clotting enzyme of Tachypleus tridentatus (horseshoe crab) amoebocytes; experiment: Test III - Limulus test (toxicolor test); format: biochemical; conditions: activity of 1 mg test compound converted to amount of LPS from E. coli 0111:B4
Description: Also, the compounds of this invention are very useful as a standard reagent for determination of endotoxin in the samples to be tested, and their activity has been confirmed by the local Shwartzman reaction test (Test I in Test Example 3), the pyrogenicity test (Test II in Test Example 3), and the activation of clotting enzyme of Tachypleus tridentatus (horseshoe crab) amoebocytes, i.e., Limulus test (Test III in Test Example 3).
The pyrogenicity of the compounds of this invention was also determined by Limulus test (toxicolor test). That is, the test compound was dissolved in a pyrogen-free 0.1% (vol/vol) triethylamine aqueous solution to a concentration of 2 mg/mℓ and diluted with pyrogen-free distilled water to a concentration of 4 X 10⁻¹ mg/mℓ. Subsequently, dilute aqueous solutions having concentrations of from 4 X 10⁻¹ mg/mℓ to 4 × 10⁻¹⁰ mg/mℓ were prepared by serial 10-fold dilution. […] Thereafter, 0.5 mℓ of sodium nitrite was added to the culture, and after stirring 0.1 mℓ each of ammonium sulfamate and N-(1-naphthyl)-ethylenediamine were added thereto to develop a color, and absorbance at a wavelength of 545 nm was determined. […]

[2] = test system: Japanese domestic white rabbits; experiment: Test II - test on pyrogenicity (Japanese Pharmacopoeia); format: in vivo; conditions: for Number of Febrile Animals/Number of Tested Animals: 0.1 µg/kg intravenously, febrile = temperature increase of 0.6°C or more
Description: The pyrogenicity of the compounds of this invention was determined in terms of body temperature increase in rabbits after intravenous injection of the test compound in accordance with the test method of pyrogenicity defined in Japanese Pharmacopoeia. That is, the rectal temperatures of Japanese domestic white rabbits (body weight: 2 to 2.5 kg) were measured 3 times at one-hour intervals. When the temperature in the second and third measurements were substantially equal, the third temperature was taken as a reference temperature. Within 15 minutes after the third measurement, the test compound dissolved in pyrogen-free distilled water was injected in the ear vein, and the rectal temperature was measured 3 times at one-hour intervals after injection. A difference between the reference temperature and the maximum temperature was taken as an increase of body temperature, and the pyrogenicity of the test compound was expressed by the number of febrile animals showing a temperature increase of 0.6°C or more.

[3] = test system: isolated murine lymphocytes (splenocytes); experiment: Test on mitogenicity ([³H]-labeled thymidine uptake); format: cell-based, BALB/c nu/nu mice; conditions: T/C, 48 hours incubation
Description: Spleen of BALB/c nu/nu mice (male; 8-week old) was minced, and lymphocytes collected from the minced spleen were incubated with graded doses of test compounds in RPMI 1640 medium without fetal bovine serum at 37°C at a concentration of 1 x 10⁵ to 1 x 10⁶ lymphocytes per mℓ for 48 hours. Twenty-four hours before the completion of the incubation, [³H]-labeled thymidine (manufactured by New England Nuclear) was added to the culture. After the completion of the incubation, cells were collected on glass micro-fiber paper and dried, and the radioactivity of [³H]-labeled thymidine incorporated into the cells was measured. The ratio of thymidine uptake in the test culture to which the test compound had been added to that in the respective control culture was determined as a stimulation index. The higher the stimulation index, the higher the mitogenicity.

Japanese white rabbits = format: in vivo; conditions: for Number of Necrosed Animals/Number of Tested Animals: 100 µg LPS intravenously 20 hours later
Description: The local Shwartzman reaction test (Test I) is examined to determine the phenomenon of necrosis, at the site where a test compound was injected, induced by intravenous injection of lipopolysaccharide (hereinafter referred to as LPS) after 20 hours from intracutaneous injection of the test compound to test animals, preferably in rabbits.
The test on Shwartzman reaction specific to endotoxin was carried out as follows using Japanese white rabbits (female, weighing around 3 kg). That is, Japanese domestic white rabbits were intracutaneously injected with the test compound. Twenty hours later, 100 µg of LPS extracted from Salmonella minnesota R595, Re-mutant was intravenously injected to each rabbit. The Shwartzman reaction-induction activity was expressed in terms of number of animals that suffered from hemorrhagic necrosis at the site that had been prepared by intracutaneous injection of the test compound.

Row | SMILES | Converted LPS Amount [1] | Number of Febrile Animals/Number of Tested Animals [2] | Stimulation Index ±S.E. ([3]; 0.01 µg/mℓ test compound added) | Stimulation Index ±S.E. ([3]; 0.1 µg/mℓ test compound added) | Stimulation Index ±S.E. ([3]; 1 µg/mℓ test compound added) | Number of Necrosed Animals/Number of Tested Animals (Japanese white rabbits; 20 µg/site intracutaneously) | reaction in Test II (pyrogenicity) ([2]; summary in words) | Number of Necrosed Animals/Number of Tested Animals (Japanese white rabbits; 80 µg/site intracutaneously) | reaction in Test I (local Shwartzman reaction) (Japanese white rabbits; summary in words)
1 | CCCCCCCCCCCCCC(=O)O[C@H](CCCCCCCCCCC)CC(=O)O[C@@H]1[C@@H](NC(=O)C[C@@H](CCCCCCCCCCC)OC(=O)CCCCCCCCCCC)[C@H](OC[C@H]2O[C@H](OP(=O)(O)O)[C@H](NC(=O)C[C@H](O)CCCCCCCCCCC)[C@@H](OC(=O)C[C@H](O)CCCCCCCCCCC)[C@@H]2O)O[C@H](CO)[C@H]1OP(=O)(O)O [Compound of Present Invention, 6-O-{2-Deoxy-2-[(R)-3-dodecanoyloxytetradecanoylamino]-3-O-[(R)-3-tetradecanoyloxytetradecanoyl]-4-O-phosphono-β-D-glucopyranosyl}-2-deoxy-2-[(R)-3-hydroxytetradecanoylamino]-3-O-[(R)-3-hydroxytetradecanoyl]-1-O-phosphono-α-D-glucopyranose] | 2.38 mg | 3/4 | 4.06 ± 0.35 | 9.05 ± 0.70 | 11.76 ± 0.13 | 2/3 |  |  | 
2 | CCCCCCCCCCC[C@@H](O)CC(=O)N[C@H]1[C@H](OC[C@H]2O[C@H](OP(=O)(O)O)[C@H](NC(=O)C[C@H](O)CCCCCCCCCCC)[C@@H](OC(=O)C[C@H](O)CCCCCCCCCCC)[C@@H]2O)O[C@H](CO)[C@@H](OP(=O)(O)O)[C@@H]1OC(=O)C[C@H](O)CCCCCCCCCCC [Control Compound 1, 6-O-{2-Deoxy-2-[(R)-3-hydroxytetradecanoylamino]-3-O-[(R)-3-hydroxytetradecanoyl]-4-O-phosphono-β-D-glucopyranosyl}-2-deoxy-2-[(R)-3-hydroxytetradecanoylamino]-3-O-[(R)-3-hydroxytetradecanoyl]-1-O-phosphono-α-D-glucopyranose] | 1.34 mg | 0/3 |  |  |  |  | negative | 0/3 | negative
